Measurements published in patent publication EP1733758A1, “Methods for administration of a farnesyl dibenzodiazepinone” (Ecopia Biosciences Inc., priority 2005, dated 2006).

Assays:
[1] = test system: rat glioma (C6) tumor xenograft; test: Rat C6 glioblastoma subcutaneous tumor xenograft antitumor efficacy study; format: in vivo, female athymic (nu/nu) nude mice; conditions: for %TGI: analyzed at Day 18, P < 0.0001
Method: The rat C6 glioblastoma antitumor efficacy study was performed at INSERM U318 (Grenoble, France). The rat C6 glioblastoma subcutaneous tumor model is based on the use of a rat C6 cell line obtained from a rat glial tumor induced by N-nitrosomethylurea (Benda et al. (1968), Science, vol 161, 370-371). These animal studies were done according to ethical guidelines of animal experimentation (Charte du comité d'éthique du CNRS, 2003) and the English "Guidelines for the welfare of animals in experimental neoplasia (Second Edition)" from the United Kingdom Coordinating Committee on Cancer Research (UKCCCR) (Workman et al. (1998), Br. J. Cancer, vol 77, no 1, 1-10). On each dosing day, Formula I stock solutions (24 and 40 mg/mL in 20% ethanol, 20% PEG-400 and 60% Tween 80) were diluted with sterile 5% dextrose in water (D5W) to prepare dosing solutions of 6 mg/mL and 10 mg/mL of Formula I in a vehicle consisting of 5% ethanol, 5% PEG-400, 15% Tween-80, and 75% D5W.
For the rat glioma antitumor efficacy study, female athymic (nu/nu) nude mice (6-7 weeks of age) were inoculated SC with 5 x 10^6 C6 cells (day 0). Tumor bearing animals were randomized (10 per group) when tumors were palpable (day 6). Group 1 (control group) received drug-free vehicle (5% ethanol, 5% PEG-400, 15% Tween-80, and 75% D5W) IP (5 mL/kg), once daily on days 6-18 (q1d x 13). Group 2 received Formula I (6 mg/mL) IP at 20 mg/kg, once daily on days 6 to 13 and then at 10 mg/kg once daily on days 14 to 18. Group 3 received Formula I (6 mg/mL) SC at 30 mg/kg, once daily on days 6 to 13 and then at 15 mg/kg once daily on days 14 to 18. Group 4 received Formula I (10 mg/mL) IV at 100 mg/kg q1d x 5 for 2 weeks. Each animal was euthanized when its tumor reached the predetermined endpoint size (∼2,500 mm^3) or at the end of the study (D18). Treatment period was over 13 days, from day 6 to day 18, post tumor cell inoculation. Tumor growth inhibition (TGI) was calculated on day 16 post tumor cell inoculation, at which time some animals from the vehicle control group had to be sacrificed due to tumor burden.
(§1) In this model and the models of Examples 3, 6 and 7, tumor growth was followed every other day by measuring tumor length (L) and width (W) using a calliper. Measurements were converted to tumor volumes (TV; mm^3) using the standard formula, TV = (L xW^2)/2. Tumor volume at day n was expressed as relative tumor volume (RTV) according to the following formula RTV = TVn / TV0, where TVn is the tumor volume at day n and TV0 is the tumor volume at day 0. The percentage of tumor growth inhibition (%TGI) was determined by 1 ― (mean RTV of treated group/ mean RTV of control group) x 100. […] Statistical analysis was calculated by the two-tailed unpaired t test using the Prism software. Animals were weighed at least twice weekly during and after treatment until completion of the study. The mice were examined frequently for overt signs of any adverse drug-related side effects.
When the time to endpoint (TTE) for each mouse was also calculated by the following equation: TTE = (log10(endpoint volume)−b)/(m) [formula] Where TTE is expressed in days, endpoint volume is in mm^3, b is the intercept, and m is the slope of the line obtained by linear regression of a log-transformed tumor data set. This value was used to determined % tumor growth delay (%TGD), defined as the increase in median TTE for a treatment group compared to the control group expressed in days, or as a percentage of the median TTE of the control group.

U-87MG cell line = test: In vitro activity in the U-87MG cell line; format: cell-based; conditions: Homo sapiens
[2] = test system: human glioma (U-87MG) tumor xenograft; test: Human U-87MG glioblastoma xenograft antitumor efficacy study; format: in vivo, female athymic (nu/nu) nude mice; conditions: SC bolus 30 mg/kg q1d x 5 over 2 weeks
Text: as §1
The human U-87 MG (ATCC® no. HTB-14™) glioblastoma antitumor efficacy study was performed at INSERM U318 (Grenoble, France). […]
For the human glioblastoma antitumor efficacy study, female athymic (nu/nu) nude mice (6-7 weeks of age) were inoculated SC with 5 x 10^6 U-87MG cells (day 0). […] Tumor growth inhibition (TGI) was calculated on day 34 post tumor cell inoculation, at which time some animals from the vehicle control group had to be sacrificed due to tumor burden.

CC(C)=CCC/C(C)=C/CC/C(C)=C/CN1C(=O)c2cccc(O)c2Nc2c(O)cc(O)cc21 [Formula I, 10-farnesyl-4,6,8-trihydroxy-dibenzodiazepin-11-one]
Maximum body weight loss ([1]; IP 20 mg/kg (Q1D x 8) followed by 10 mg/kg (Q1D x 7), Day 13): 15% | difference in tumor volume relative to the vehicle control ([1]; IV bolus 100 mg/kg (Q1D x 5) over 2 weeks): No significant difference | body weight loss ([1]; IV group, 100 mg/kg q1d x 5 for 2 weeks): No significant body weight loss | Maximum body weight loss ([1]; SC 30 mg/kg (Q1D x 8) followed by 15 mg/kg (Q1D x 7)): 11% | %TGI ([1]; daily bolus IP 20 then 10 mg/kg): 66% | %TGI ([1]; daily bolus SC 30 then 15 mg/kg): 60% | IC50 (U-87MG cell line): 10.9 µM | body weight loss [2]: no significant body weight loss | %TGI ([2]; day 34, P = 0.05): 36%
